# Experimental data from patent US11542259B2, “Compounds for the treatment of kinase-dependent disorders” (Exelixis, Inc., priority 2018, dated 2023).
# Columns and labels:
# Type in all cases: cell-based
# Met = Met (Homo sapiens (Human), UniProt P08581); assay: Met autophosphorylation ELISA in PC-3 cells; details: cellular, HGF stimulated, read-out: c-Met IC50
# Procedure: PC-3 prostate cancer cells (ATCC #CRL-1435) were seeded at 4×10^4 cells/well onto 24-well plates (Greiner #662165), in DMEM (Thermo Fisher #11995-040) containing 10% FBS (Thermo Fisher #26140-079), 1% MEM NEAA (Thermo Fisher #11140-050), 1% GlutaMax (Thermo Fisher #35050-061), and 1% Penicillin Streptomycin (Thermo Fisher #15140-122). PC-3 cells were incubated at 37° C., 5% CO2 for 24 h and then starved for 3 h in serum-free medium. Test compounds were serially diluted to produce an 8-point dose curve in fresh serum-free medium to a final concentration of 0.3% DMSO (vehicle) and added to the cells and incubated for 1 h. Cells were then stimulated with 100 ng/mL recombinant human HGF (R&D Systems #294-HG-250) for 10 min, washed with cold PBS and immediately lysed with 130 μL of cold 1× lysis buffer [20 mM Tris, 137 mM sodium chloride, 2 mM EDTA, 10% glycerol, 1% NP-40 alternative, 1 mM activated sodium orthovanadate, 1 mM PefaBloc SC (Sigma-Aldrich #11429868001), protease/phosphatase inhibitor tablet (Thermo Fisher #A32959)]. Lysates were clarified by centrifugation and 100 μL/well added into the PathScan phospho-Met (panTyr) Sandwich ELISA (Cell Signaling Technology #7333). Assay was performed according to manufacturer's instructions. Positive control wells (100% activity) contained HGF-stimulated, DMSO-treated cell lysates. Negative control wells (0% activity) contained HGF-stimulated, reference inhibitor-treated cell lysates. IC50 values were calculated by nonlinear regression analysis using a 4-parameter logistic curve fit in ActivityBase XE (IDBS).
# AXL = AXL (Homo sapiens (Human), UniProt P30530); assay: AXL autophosphorylation ELISA in A-172 cells; details: cellular, Gas6 stimulated
# Procedure: A-172 glioblastoma cells (ATCC #CRL-1620) were seeded at 2.5×10^5 cells/well onto 24-well plates (Greiner #662165), in DMEM (Thermo Fisher #11995-040) containing 10% FBS (Thermo Fisher #26140-079), 1% MEM NEAA (Thermo Fisher #11140-050), 1% GlutaMax (Thermo Fisher #35050-061) and 1% Penicillin Streptomycin (Thermo Fisher #15140-122). A-172 cells were incubated at 37° C., 5% CO2 for 24 h and then starved for 24 h in serum-free medium. Test compounds were serially diluted to produce an 8-point dose curve in fresh serum-free medium to a final concentration of 0.3% DMSO (vehicle) and added to the cells and incubated for 1 h. Cells were then stimulated with 1 μg/mL recombinant human Gas6 (R&D Systems #885-GSB-500) for 15 min, washed with cold PBS and immediately lysed with 150 μL of cold 1× lysis buffer [20 mM Tris, 137 mM sodium chloride, 2 mM EDTA, 10% glycerol, 1% NP-40 alternative, 1 mM activated sodium orthovanadate, 1 mM PefaBloc SC (Sigma-Aldrich #11429868001), protease/phosphatase inhibitor tablet (Thermo Fisher #A32959)]. Lysates were collected and 100 μL/well added into the human phospho-AXL DuoSet IC ELISA (R&D Systems #DYC2228-2). Assay was performed according to manufacturer's instructions and sample phospho-AXL concentrations were extrapolated using human phospho-AXL control (R&D Systems #841645) as a standard. Positive control wells (100% activity) contained Gash-stimulated, DMSO-treated cell lysates. Negative control wells (0% activity) contained Gash-stimulated, reference inhibitor-treated cell lysates. IC50 values were calculated by nonlinear regression analysis using a 4-parameter logistic curve fit in ActivityBase XE (IDBS).
# KDR = KDR (Homo sapiens (Human), UniProt P35968); assay: KDR autophosphorylation ELISA in HUVEC cells; details: cellular, VEGF165 stimulated
# Procedure: Human umbilical vein endothelial cells or HUVEC (Lonza #C2519A) were seeded at 2×10^4 cells/well onto 96-well plates (Corning #3904), in EGM-2 growth medium (Lonza #CC-3162) containing 1% Penicillin Streptomycin (Thermo Fisher #15140-122). HUVEC cells were incubated at 37° C., 5% CO2 for 24 h and then starved for 24 h in serum-free EBM-2 basal medium (Lonza #CC-3156) containing 1% Penicillin Streptomycin. Test compounds were serially diluted to produce an 8-point dose curve in fresh serum-free medium to a final concentration of 0.3% DMSO (vehicle) and added to the cells and incubated for 1 h. Cells were then stimulated with 100 ng/mL recombinant human VEGF165 (R&D Systems #293-VE-500) for 5 min, washed with cold PBS, and immediately lysed with 130 μL of cold 1× lysis buffer [20 mM Tris, 137 mM sodium chloride, 2 mM EDTA, 10% glycerol, 1% NP-40 alternative, 1 mM activated sodium orthovanadate, 1 mM PefaBloc SC (Sigma-Aldrich #11429868001), protease/phosphatase inhibitor tablet (Thermo Fisher #A32959)]. Lysates were collected and 100 μL/well added into the human phospho-KDR DuoSet IC ELISA (R&D Systems #DYC1766-2). Assay was performed according to manufacturer's instructions and sample phospho-KDR concentrations were extrapolated using human phospho-KDR control (R&D Systems #841421) as a standard. Positive control wells (100% activity) contained VEGF165-stimulated, DMSO-treated cell lysates. Negative control wells (0% activity) contained non-stimulated cell lysates. IC50 values were calculated by nonlinear regression analysis using a 4-parameter logistic curve fit in ActivityBase XE (IDBS).
# Sequence of Met (P08581 25-1390): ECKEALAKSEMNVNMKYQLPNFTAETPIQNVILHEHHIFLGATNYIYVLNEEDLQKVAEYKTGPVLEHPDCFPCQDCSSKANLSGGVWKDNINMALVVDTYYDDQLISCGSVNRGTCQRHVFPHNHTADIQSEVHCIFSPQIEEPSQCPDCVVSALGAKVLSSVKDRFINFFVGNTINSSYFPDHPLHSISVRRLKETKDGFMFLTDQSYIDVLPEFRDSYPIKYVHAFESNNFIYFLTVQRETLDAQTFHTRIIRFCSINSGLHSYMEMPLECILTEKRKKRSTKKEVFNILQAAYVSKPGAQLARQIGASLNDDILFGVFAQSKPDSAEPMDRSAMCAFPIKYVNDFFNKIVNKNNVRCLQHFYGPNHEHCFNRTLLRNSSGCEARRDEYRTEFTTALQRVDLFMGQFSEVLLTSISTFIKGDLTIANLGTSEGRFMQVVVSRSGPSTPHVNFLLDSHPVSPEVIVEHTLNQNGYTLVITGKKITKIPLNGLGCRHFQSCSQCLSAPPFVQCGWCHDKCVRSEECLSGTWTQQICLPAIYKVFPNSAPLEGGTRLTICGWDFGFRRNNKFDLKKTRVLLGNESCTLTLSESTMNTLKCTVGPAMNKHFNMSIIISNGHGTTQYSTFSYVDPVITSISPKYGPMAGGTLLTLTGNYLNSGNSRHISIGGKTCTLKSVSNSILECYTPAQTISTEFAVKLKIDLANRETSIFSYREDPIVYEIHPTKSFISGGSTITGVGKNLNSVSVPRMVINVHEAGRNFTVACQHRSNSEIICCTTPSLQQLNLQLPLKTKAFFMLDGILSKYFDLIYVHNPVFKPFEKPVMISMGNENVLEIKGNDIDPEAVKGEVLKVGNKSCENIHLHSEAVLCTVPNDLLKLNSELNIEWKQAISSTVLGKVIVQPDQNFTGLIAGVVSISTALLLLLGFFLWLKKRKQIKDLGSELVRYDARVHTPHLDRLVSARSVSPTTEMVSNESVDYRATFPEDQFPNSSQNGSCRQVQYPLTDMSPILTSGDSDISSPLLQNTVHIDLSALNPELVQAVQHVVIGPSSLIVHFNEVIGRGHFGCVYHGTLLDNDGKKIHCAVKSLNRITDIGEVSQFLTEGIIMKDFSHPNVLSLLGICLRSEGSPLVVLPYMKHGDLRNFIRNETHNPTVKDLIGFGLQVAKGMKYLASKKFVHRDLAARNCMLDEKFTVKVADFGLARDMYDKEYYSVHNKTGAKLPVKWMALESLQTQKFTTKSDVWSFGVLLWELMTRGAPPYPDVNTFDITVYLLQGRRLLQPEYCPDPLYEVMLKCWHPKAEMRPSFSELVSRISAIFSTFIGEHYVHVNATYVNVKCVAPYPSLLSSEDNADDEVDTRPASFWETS
# Sequence of KDR (P35968 20-1356): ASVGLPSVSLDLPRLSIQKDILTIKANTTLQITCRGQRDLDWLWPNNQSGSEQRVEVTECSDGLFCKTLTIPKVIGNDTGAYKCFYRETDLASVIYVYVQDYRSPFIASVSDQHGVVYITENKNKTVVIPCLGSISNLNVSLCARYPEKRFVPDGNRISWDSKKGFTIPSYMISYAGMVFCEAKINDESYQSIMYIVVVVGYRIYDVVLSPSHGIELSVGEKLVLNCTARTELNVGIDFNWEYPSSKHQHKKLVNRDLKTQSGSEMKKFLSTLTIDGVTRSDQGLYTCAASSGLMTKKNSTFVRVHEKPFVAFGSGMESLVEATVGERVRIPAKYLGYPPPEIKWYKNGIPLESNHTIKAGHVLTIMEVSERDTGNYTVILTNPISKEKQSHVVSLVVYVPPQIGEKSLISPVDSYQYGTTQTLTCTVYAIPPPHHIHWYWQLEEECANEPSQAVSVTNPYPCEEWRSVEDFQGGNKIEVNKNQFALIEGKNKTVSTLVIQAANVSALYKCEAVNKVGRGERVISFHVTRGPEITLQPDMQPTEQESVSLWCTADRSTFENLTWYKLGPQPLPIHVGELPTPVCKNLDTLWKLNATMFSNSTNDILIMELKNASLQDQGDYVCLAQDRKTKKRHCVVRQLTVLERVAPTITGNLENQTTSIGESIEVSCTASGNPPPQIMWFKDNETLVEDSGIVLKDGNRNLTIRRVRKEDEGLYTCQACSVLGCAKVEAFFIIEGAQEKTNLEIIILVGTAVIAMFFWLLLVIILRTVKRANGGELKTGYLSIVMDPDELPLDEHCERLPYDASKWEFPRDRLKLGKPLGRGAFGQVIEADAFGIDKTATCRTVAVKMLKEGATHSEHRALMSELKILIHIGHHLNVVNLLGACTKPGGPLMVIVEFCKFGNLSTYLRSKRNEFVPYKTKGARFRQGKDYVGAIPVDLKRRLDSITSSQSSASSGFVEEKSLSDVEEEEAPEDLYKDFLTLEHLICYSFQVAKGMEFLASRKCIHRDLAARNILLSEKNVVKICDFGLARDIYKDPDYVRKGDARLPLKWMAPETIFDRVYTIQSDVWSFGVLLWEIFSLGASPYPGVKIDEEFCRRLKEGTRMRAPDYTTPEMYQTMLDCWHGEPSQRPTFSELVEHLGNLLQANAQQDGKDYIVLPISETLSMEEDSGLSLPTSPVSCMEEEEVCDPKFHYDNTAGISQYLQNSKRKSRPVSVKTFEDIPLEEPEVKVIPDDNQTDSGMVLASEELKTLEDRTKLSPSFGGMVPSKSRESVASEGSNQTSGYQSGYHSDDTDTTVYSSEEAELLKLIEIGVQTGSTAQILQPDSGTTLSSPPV
# Sequence of AXL (P30530 26-894): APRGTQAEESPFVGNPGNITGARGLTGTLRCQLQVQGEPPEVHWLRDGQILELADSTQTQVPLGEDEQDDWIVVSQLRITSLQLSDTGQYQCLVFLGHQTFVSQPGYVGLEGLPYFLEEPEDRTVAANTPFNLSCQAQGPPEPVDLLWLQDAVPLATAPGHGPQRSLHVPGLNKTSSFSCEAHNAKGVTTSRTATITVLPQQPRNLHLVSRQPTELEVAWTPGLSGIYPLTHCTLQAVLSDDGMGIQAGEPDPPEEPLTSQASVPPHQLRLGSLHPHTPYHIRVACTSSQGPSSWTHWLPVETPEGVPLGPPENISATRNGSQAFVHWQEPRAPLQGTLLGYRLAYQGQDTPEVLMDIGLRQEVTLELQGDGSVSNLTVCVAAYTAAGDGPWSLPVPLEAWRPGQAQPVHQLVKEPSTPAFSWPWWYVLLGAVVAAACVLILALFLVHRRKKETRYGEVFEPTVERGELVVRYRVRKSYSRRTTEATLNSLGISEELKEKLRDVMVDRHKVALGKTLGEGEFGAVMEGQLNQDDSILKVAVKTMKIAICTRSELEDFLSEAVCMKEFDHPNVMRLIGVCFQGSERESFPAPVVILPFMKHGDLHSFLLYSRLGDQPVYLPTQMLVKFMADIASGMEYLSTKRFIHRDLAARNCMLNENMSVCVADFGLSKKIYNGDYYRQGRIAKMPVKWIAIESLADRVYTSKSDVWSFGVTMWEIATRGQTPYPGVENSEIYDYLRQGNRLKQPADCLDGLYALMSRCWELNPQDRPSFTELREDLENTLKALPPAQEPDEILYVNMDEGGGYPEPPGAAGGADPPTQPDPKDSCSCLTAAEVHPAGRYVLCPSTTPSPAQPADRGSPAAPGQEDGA
IC50 (Met),IC50 (AXL),IC50 (KDR),Structure (SMILES)
0.1 to 0.3 µM,0.1 to 0.3 µM,> 0.3 µM,"CO/N=C(/C)c1cc2c(Oc3ccc(NC(=O)C4(C(=O)Nc5ccc(F)cc5)CC4)cc3)ccnc2cc1OC [Compound 36, 1-N′-(4-fluorophenyl)-1-N-[4-[7-methoxy-6-[(Z)-N-methoxy-C-methylcarbonimidoyl]quinolin-4-yl]oxyphenyl]cyclopropane-1,1-dicarboxamide]"
0.1 to 0.3 µM,0.01 to 0.1 µM,0.1 to 0.3 µM,"CC1NC(=O)c2cc3c(Oc4ccc(NC(=O)C5(C(=O)Nc6ccc(F)cc6)CC5)cc4)ccnc3cc2O1 (stereo not drawn) [Compound 92, 1-N′-(4-Fluorophenyl)-1-N-[4-[(2-methyl-4-oxo-2,3-dihydropyrido[3,2-g][1,3]benzoxazin-6-yl)oxy]phenyl]cyclopropane-1,1-dicarboxamide]"
> 0.3 µM,0.1 to 0.3 µM,0.1 to 0.3 µM,"O=C(NOC[C@@H](O)CO)c1ccc2c(Oc3ccc(NC(=O)C4(C(=O)Nc5ccc(F)cc5)CC4)cc3)ccnc2c1 [Compound 170, 1-N-[4-[7-[[(2S)-2,3-Dihydroxypropoxy]carbamoyl]quinolin-4-yl]oxyphenyl]-1-N′-(4-fluorophenyl)cyclopropane-1,1-dicarboxamide]"
0.1 to 0.3 µM,0.1 to 0.3 µM,0.1 to 0.3 µM,"CO/N=C(\C)c1ccc2c(Oc3ccc(NC(=O)C4(C(=O)Nc5ccc(F)cc5)CC4)cc3)ccnc2c1 [Compound 256, 1-N′-(4-Fluorophenyl)-1-N-[4-[7-[(E)-N-methoxy-C-methylcarbonimidoyl]quinolin-4-yl]oxyphenyl]cyclopropane-1,1-dicarboxamide]"
0.1 to 0.3 µM,0.01 to 0.1 µM,0.1 to 0.3 µM,"CO/N=C/c1cc2c(Oc3ccc(NC(=O)C4(C(=O)Nc5ccc(F)cc5)CC4)cc3)ccnc2cc1OC [Compound 193, 1-N′-(4-Fluorophenyl)-1-N-[4-[7-methoxy-6-[(E)-methoxyiminomethyl]quinolin-4-yl]oxyphenyl]cyclopropane-1,1-dicarboxamide]"
> 0.3 µM,> 0.3 µM,> 0.3 µM,"CNc1cc2nccc(Oc3ccc(NC(=O)C4(C(=O)Nc5ccc(F)cc5)CC4)cc3)c2cc1C(=O)O [Compound 81, 4-[4-[[1-[(4-Fluorophenyl)carbamoyl]cyclopropane-carbonyl]amino]phenoxy]-7-(methylamino)quinoline-6-carboxylic Acid]"
0.01 to 0.1 µM,≤ 0.01 µM,≤ 0.01 µM,"CNc1cc2nccc(Oc3ccc(NC(=O)C4(C(=O)Nc5ccc(F)cc5)CC4)cc3)c2cc1C(=O)OC [Compound 84, Methyl 4-[4-[[1-[(4-fluorophenyl)carbamoyl]cyclopropane-carbonyl]amino]phenoxy]-7-(methylamino)quinoline-6-carboxylate]"
> 0.3 µM,> 0.3 µM,> 0.3 µM,"CNC(=O)c1cc2c(Oc3ccc(NC(=O)C4(C(=O)N(C)c5ccc(F)cc5)CC4)cc3F)ccnc2cc1OC [Compound 262, 1-N-[3-Fluoro-4-[7-methoxy-6-(methylcarbamoyl)quinolin-4-yl]oxyphenyl]-1-N′-(4-fluorophenyl)-1-N′-methylcyclopropane-1,1-dicarboxamide]"
0.1 to 0.3 µM,0.1 to 0.3 µM,0.1 to 0.3 µM,"O=C(NOC1COC1)c1ccc2c(Oc3ccc(NC(=O)C4(C(=O)Nc5ccc(F)cc5)CC4)cc3)ccnc2c1 [Compound 167, 1-N′-(4-Fluorophenyl)-1-N-[4-[7-(oxetan-3-yloxycarbamoyl)quinolin-4-yl]oxyphenyl]cyclopropane-1,1-dicarboxamide]"
0.1 to 0.3 µM,0.1 to 0.3 µM,> 0.3 µM,"NS(=O)(=O)c1ccc2c(Oc3ccc(NC(=O)C4(C(=O)Nc5ccc(F)cc5)CC4)cc3)ccnc2c1 [Compound 254, 1-N′-(4-Fluorophenyl)-1-N-[4-(7-sulfamoylquinolin-4-yl)oxyphenyl]cyclopropane-1,1-dicarboxamide]"
0.1 to 0.3 µM,0.1 to 0.3 µM,0.01 to 0.1 µM,"NS(=O)(=O)c1ccc2nccc(Oc3ccc(NC(=O)C4(C(=O)Nc5ccc(F)cc5)CC4)cc3)c2c1 [Compound 209, 1-N′-(4-Fluorophenyl)-1-N-[4-(6-sulfamoylquinolin-4-yl)oxyphenyl]cyclopropane-1,1-dicarboxamide]"
0.1 to 0.3 µM,0.01 to 0.1 µM,0.1 to 0.3 µM,"O=C(Nc1ccc(F)cc1)C1(C(=O)Nc2ccc(Oc3ccnc4ccc(-c5nnco5)cc34)cc2)CC1 [Compound 221, 1-N′-(4-Fluorophenyl)-1-N-[4-[6-(1,3,4-oxadiazol-2-yl)quinolin-4-yl]oxyphenyl]cyclopropane-1,1-dicarboxamide]"
0.01 to 0.1 µM,0.01 to 0.1 µM,0.01 to 0.1 µM,"COC(=O)c1cc2c(Oc3ccc(NC(=O)C4(C(=O)Nc5ccc(F)cc5)CC4)cc3)ccnc2cc1N [Compound 90, Methyl 7-amino-4-[4-[[1-[(4-fluorophenyl)carbamoyl]-cyclopropanecarbonyl]amino]phenoxy]quinoline-6-carboxylate]"
